Data taken from US10472612B2, “Cell culture system” (PRESIDENT AND FELLOWS OF HARVARD COLLEGE, priority 2011, dated 2019).

Columns and labels:
[1] = tested on: Caco-2 cell monolayer alone or with HMVE cell monolayer; assay: Molecular permeability through cell monolayer in gut-on-a-chip with or without mechanical strain (Example 1); assay type: in vitro ADME, human; settings: Caco-2 monolayer alone or with HMVE monolayer; cyclic stretching 0.15 Hz, 30 μL/h
Description: In a fluidic condition (N=4), constant perfusion flow of 30 μL/h was conducted without any stretching motions (i.e. shear stresses only). […] In a static condition (N=4), transport experiment was performed in a Transwell system. Error bars indicate standard errors.
In a fluidic condition (N=2), constant perfusion flow at 30 μL/h was conducted without any stretching motions (i.e. shear stresses only). […] In a static condition (N=4), transport experiments were performed in the Transwell system. Error bars indicate standard errors.
In a fluidic condition (N=5), constant perfusion flow of 30 μL/h was conducted without any stretching motions (i.e. shear stresses only). […] In a static condition (N=3), transport experiment was performed in a Transwell system. Error bars indicate standard errors.
After the cell monolayers were fully confluent and stabilized under defined fluidic conditions, transport experiments were conducted. […] The co-cultured monolayers of Caco-2 and HMVE cells experienced with cyclic deformations for 12 hours or more prior to initiating the transport or barrier functional analysis experiments. […] Electrical resistances between the top and the bottom microchannels were monitored using an Ag/AgCl electrode equipped with an Ohm meter, and the resistance was converted into TEER value by multiplying values by the surface area of the cell monolayer. […]

Caco-2 cell monolayer [2] = assay type: cell-based; settings: flow 40 μL/hr, cyclic strain 10%, 0.15 Hz
Description: Epithelial Barrier Measurements. The integrity of the human intestinal epithelial cell monolayer resulting from establishment of apical tight junctions was evaluated by staining for the tight junctional protein, occluidin,^29 using confocal immunofluorescence microscopy and by measuring trans-epithelial electrical resistance (TEER). In Transwell cultures, TEER was measured using a Millicell ERS meter (Millipore, Bedford, Mass.) coupled to a chopstick-like electrode, and TEER values (Ω cm^2) were determined by subtracting the baseline resistance value measured in the absence of cells and then multiplying the remaining ‘specific’ resistance value (Ω) times the cell culture surface area (cm^2). […] Again, the baseline resistance value measured in the absence of cells was subtracted from results obtained with the Caco-2 monolayer, and specific TEER values were determined by multiplying the specific resistance times the total cell culture surface area on the PDMS membrane (Table 1).

Caco-2 cell monolayer [3] = assay: LGG co-culture on Caco-2 monolayer in static Transwell; assay type: cell-based, human; settings: first day of co-culture, not measurable after 48 hours
Description: Epithelial Barrier Measurements. The integrity of the human intestinal epithelial cell monolayer resulting from establishment of apical tight junctions was evaluated by staining for the tight junctional protein, occluidin,^29 using confocal immunofluorescence microscopy and by measuring trans-epithelial electrical resistance (TEER). In Transwell cultures, TEER was measured using a Millicell ERS meter (Millipore, Bedford, Mass.) coupled to a chopstick-like electrode, and TEER values (Ω cm^2) were determined by subtracting the baseline resistance value measured in the absence of cells and then multiplying the remaining ‘specific’ resistance value (Ω) times the cell culture surface area (cm^2). The TEER of the Caco-2 monolayer cultured in the Gut-on-a-Chip was measured using a voltage-ohm meter (87V Industrial Multimeter, Fluke Corporation, Everett, Wash.) coupled to Ag/AgCl electrode wires (0.008″ in diameter; A-M systems, Inc., Sequim, Wash.); control studies confirmed that similar TEER results were obtained with both methods. Again, the baseline resistance value measured in the absence of cells was subtracted from results obtained with the Caco-2 monolayer, and specific TEER values were determined by multiplying the specific resistance times the total cell culture surface area on the PDMS membrane (Table 1).
Microbial Studies. […]

Substance | effect of mechanical strain on paracellular transport [1] | barrier integrity (TEER) during co-culture (Caco-2 cell monolayer [2]) | TEER during co-culture (Caco-2 cell monolayer [3])
Lucifer yellow | increased |  | 
Lactobacillus rhamnosus GG [LGG] |  | improved | dissipated
